Experimental data: ChEMBL document CHEMBL4387753 (Bioorg Med Chem, 2019)
≈ marks a conversion by molar mass, not a printed value.

Assays:
Format in all cases: functional
Pseudomonas aeruginosa = experiment: Antibacterial activity against Pseudomonas aeruginosa ATCC 27853 incubated for 24 hrs by CLSI protocol based broth microdilution method; conditions: ATCC 27853, 24 h
Staphylococcus aureus [1] = experiment: Antibacterial activity against Staphylococcus aureus ATCC 25923 incubated for 24 hrs by CLSI protocol based broth microdilution method; conditions: ATCC 25923, 24 h
Escherichia coli = experiment: Antibacterial activity against Escherichia coli ATCC 25922 incubated for 24 hrs by CLSI protocol based broth microdilution method; conditions: ATCC 25922, 24 h
Staphylococcus aureus [2] = experiment: Antibacterial activity against methicillin-resistant Staphylococcus aureus ATCC 43300 incubated for 24 hrs by CLSI protocol based broth microdilution method; conditions: ATCC 43300, 24 h
Bacillus pumilus = experiment: Antibacterial activity against Bacillus pumilus CMCC63202 incubated for 24 hrs by CLSI protocol based broth microdilution method; conditions: CMCC63202, 24 h
Staphylococcus aureus [3] = experiment: Antibacterial activity against penicillin-resistant Staphylococcus aureus clinical isolate incubated for 24 hrs by CLSI protocol based broth microdilution method
Bacillus subtilis = experiment: Antibacterial activity against Bacillus subtilis ATCC 9372 incubated for 24 hrs by CLSI protocol based broth microdilution method; conditions: ATCC 9372, 24 h
Staphylococcus aureus [4] = experiment: Antibacterial activity against Staphylococcus aureus clinical isolate incubated for 24 hrs by CLSI protocol based broth microdilution method

Row | SMILES | MIC (Pseudomonas aeruginosa) [µg/mL] | MIC (Staphylococcus aureus [1]) [µg/mL] | MIC (Escherichia coli) [µg/mL] | MIC (Staphylococcus aureus [2]) [µg/mL] | MIC (Bacillus pumilus) [µg/mL] | MIC (Staphylococcus aureus [3]) [µg/mL] | MIC (Bacillus subtilis) [µg/mL] | MIC (Staphylococcus aureus [4]) [µg/mL]
1 | NC(=O)c1c(F)ccc(OCC2=NN(c3ccc(Cl)cc3)C(=O)C2)c1F | > 64 | > 64 | > 64 | > 64 | > 64 | > 64 | > 64 | 
2 | NC(=O)c1c(F)ccc(OCc2nn(-c3ccc(Cl)cc3Cl)c(=O)o2)c1F | > 64 | 4 (≈ 9.61 µM) | > 64 | 2 (≈ 4.81 µM) | 0.5 (≈ 1.2 µM) | 4 (≈ 9.61 µM) | 1 (≈ 2.4 µM) | 4 (≈ 9.61 µM)
3 | NC(=O)c1c(F)ccc(OCc2nn(-c3ccc(C(F)(F)F)cc3)c(=O)o2)c1F | > 64 | 4 (≈ 9.63 µM) | > 64 | 2 (≈ 4.82 µM) | 2 (≈ 4.82 µM) | 4 (≈ 9.63 µM) | 0.125 (≈ 0.301 µM) | 4 (≈ 9.63 µM)
4 | NC(=O)c1c(F)ccc(OCc2nn(-c3ccc(F)cc3)c(=O)o2)c1F | > 64 | 16 (≈ 43.8 µM) | > 64 | 8 (≈ 21.9 µM) | 8 (≈ 21.9 µM) | 16 (≈ 43.8 µM) | 2 (≈ 5.48 µM) | 2 (≈ 5.48 µM)
5 | CCCn1c(COc2ccc(F)c(C(N)=O)c2F)nn(-c2ccc(Br)cc2)c1=O | > 64 | > 64 | > 64 | 32 (≈ 68.5 µM) | > 64 | > 64 | 32 (≈ 68.5 µM) | 
6 | CC(C)c1ccc(-n2nc(COc3ccc(F)c(C(N)=O)c3F)oc2=O)cc1 | > 64 | 16 (≈ 41.1 µM) | > 64 | 16 (≈ 41.1 µM) | 2 (≈ 5.14 µM) | 32 (≈ 82.2 µM) | 1 (≈ 2.57 µM) | 16 (≈ 41.1 µM)
7 | CC(C)(C)c1ccc(-c2nn(COc3ccc(F)c(C(N)=O)c3F)c(=O)o2)cc1 | > 64 | > 64 | > 64 | > 64 | 32 (≈ 79.3 µM) | > 64 | 8 (≈ 19.8 µM) | > 64
8 | CC(C)Cn1c(COc2ccc(F)c(C(N)=O)c2F)nn(-c2ccc(Br)cc2)c1=O | > 64 | > 64 | > 64 | > 64 | > 64 | > 64 | > 64 | 
9 | Cc1ccc(-c2nn(COc3ccc(F)c(C(N)=O)c3F)c(=O)o2)cc1 | > 64 | > 64 | > 64 | > 64 | > 64 | > 64 | > 64 | > 64
10 | CC(C)(C)c1ccc(N2N=C(COc3ccc(F)c(C(N)=O)c3F)CC2=O)cc1 | > 64 | > 64 | > 64 | > 64 | > 64 | 64 (≈ 159 µM) | > 64 | 
11 | Cc1ccc(-n2nc(COc3ccc(F)c(C(N)=O)c3F)oc2=O)cc1 | > 64 | 4 (≈ 11.1 µM) | > 64 | 4 (≈ 11.1 µM) | 8 (≈ 22.1 µM) | 4 (≈ 11.1 µM) | 0.5 (≈ 1.38 µM) | 4 (≈ 11.1 µM)
12 | CCCCc1ccc(N2N=C(COc3ccc(F)c(C(N)=O)c3F)CC2=O)cc1 | > 64 | > 64 | > 64 | > 64 | > 64 | 64 (≈ 159 µM) | > 64 | 
13 | Cc1cc(Cl)ccc1-n1nc(COc2ccc(F)c(C(N)=O)c2F)oc1=O | > 64 | 4 (≈ 10.1 µM) | > 64 | 2 (≈ 5.05 µM) | 0.5 (≈ 1.26 µM) | 4 (≈ 10.1 µM) | 0.5 (≈ 1.26 µM) | 4 (≈ 10.1 µM)
14 | CN(C)n1c(COc2ccc(F)c(C(N)=O)c2F)nn(-c2ccc(Br)cc2)c1=O | > 64 | 32 (≈ 68.3 µM) | > 64 | 16 (≈ 34.2 µM) | 32 (≈ 68.3 µM) | 32 (≈ 68.3 µM) | 32 (≈ 68.3 µM) | 
15 | CC(C)(C)n1nc(COc2ccc(F)c(C(N)=O)c2F)oc1=O | > 64 | > 64 | > 64 | > 64 | > 64 | > 64 | 32 (≈ 97.8 µM) | 16 (≈ 48.9 µM)
16 | Cc1ccccc1-n1nc(COc2ccc(F)c(C(N)=O)c2F)oc1=O | > 64 | > 64 | > 64 | 64 (≈ 177 µM) | 16 (≈ 44.3 µM) | > 64 | 16 (≈ 44.3 µM) | > 64
17 | NC(=O)c1c(F)ccc(OCc2nn(Cc3ccc(Br)cc3)c(=O)o2)c1F | > 64 | > 64 | > 64 | 64 (≈ 145 µM) | 32 (≈ 72.7 µM) | > 64 | 8 (≈ 18.2 µM) | 64 (≈ 145 µM)
18 | COc1ccc(-n2nc(COc3ccc(F)c(C(N)=O)c3F)oc2=O)cc1 | > 64 | 2 (≈ 5.3 µM) | > 64 | 4 (≈ 10.6 µM) | 8 (≈ 21.2 µM) | 4 (≈ 10.6 µM) | 1 (≈ 2.65 µM) | 4 (≈ 10.6 µM)

Row | SMILES | MIC (Pseudomonas aeruginosa) [µg/mL] | MIC (Staphylococcus aureus [1]) [µg/mL] | MIC (Escherichia coli) [µg/mL] | MIC (Staphylococcus aureus [2]) [µg/mL] | MIC (Bacillus pumilus) [µg/mL] | MIC (Staphylococcus aureus [3]) [µg/mL] | MIC (Bacillus subtilis) [µg/mL] | MIC (Staphylococcus aureus [4]) [µg/mL]
19 | NC(=O)c1c(F)ccc(OCCc2nn(-c3ccc(Br)cc3)c(=O)o2)c1F | > 64 | 4 (≈ 9.09 µM) | > 64 | 2 (≈ 4.54 µM) | ≤ 0.125 | 4 (≈ 9.09 µM) | 1 (≈ 2.27 µM) | 4 (≈ 9.09 µM)
20 | CCCCn1c(COc2ccc(F)c(C(N)=O)c2F)nn(-c2ccc(Br)cc2)c1=O | > 64 | > 64 | > 64 | > 64 | > 64 | > 64 | > 64 | 
21 | CC(C)(C)c1ccc(-n2nc(CCOc3ccc(F)c(C(N)=O)c3F)oc2=O)cc1 | > 64 | 4 (≈ 9.58 µM) | > 64 | 1 (≈ 2.4 µM) | ≤ 0.125 | 4 (≈ 9.58 µM) | 0.25 (≈ 0.599 µM) | 2 (≈ 4.79 µM)
22 | NC(=O)c1c(F)ccc(OCc2nn(-c3ccc(Cl)cc3)c(=O)o2)c1F | > 64 | 1 (≈ 2.62 µM) | > 64 | 2 (≈ 5.24 µM) | 2 (≈ 5.24 µM) | 2 (≈ 5.24 µM) | 0.25 (≈ 0.655 µM) | 2 (≈ 5.24 µM)
23 | Cc1ccc(-n2nc(COc3ccc(F)c(C(N)=O)c3F)oc2=O)c(C)c1 | > 64 | 32 (≈ 85.3 µM) | > 64 | 16 (≈ 42.6 µM) | 2 (≈ 5.33 µM) | 64 (≈ 171 µM) | 2 (≈ 5.33 µM) | 32 (≈ 85.3 µM)
24 | CC(C)CCn1c(COc2ccc(F)c(C(N)=O)c2F)nn(-c2ccc(Br)cc2)c1=O | > 64 | > 64 | > 64 | > 64 | > 64 | > 64 | > 64 | 
25 | NC(=O)c1c(F)ccc(OCc2nn(-c3cccc(Cl)c3)c(=O)o2)c1F | > 64 | > 64 | > 64 | > 64 | > 64 | > 64 | 8 (≈ 21 µM) | > 64
26 | NC(=O)c1c(F)ccc(OCc2nn(-c3ccc(Cl)c(Cl)c3)c(=O)o2)c1F | > 64 | > 64 | > 64 | 64 (≈ 154 µM) | 4 (≈ 9.61 µM) | > 64 | 4 (≈ 9.61 µM) | 64 (≈ 154 µM)
27 | CC(C)(C)c1ccc(Cn2nc(COc3ccc(F)c(C(N)=O)c3F)oc2=O)cc1 | > 64 | > 64 | > 64 | > 64 | 32 (≈ 76.7 µM) | > 64 | 32 (≈ 76.7 µM) | > 64
28 | CC(C)(C)c1ccc(-n2nc(COc3ccc(F)c(C(N)=O)c3F)oc2=O)cc1 | > 64 | 8 (≈ 19.8 µM) | > 64 | 8 (≈ 19.8 µM) | 2 (≈ 4.96 µM) | 16 (≈ 39.7 µM) | 1 (≈ 2.48 µM) | 16 (≈ 39.7 µM)
29 | Cc1cccc(-n2nc(COc3ccc(F)c(C(N)=O)c3F)oc2=O)c1 | > 64 | 64 (≈ 177 µM) | > 64 | 64 (≈ 177 µM) | 64 (≈ 177 µM) | > 64 | 16 (≈ 44.3 µM) | 64 (≈ 177 µM)
30 | CCCCc1ccc(-n2nc(COc3ccc(F)c(C(N)=O)c3F)oc2=O)cc1 | > 64 | > 64 | > 64 | 64 (≈ 159 µM) | 0.5 (≈ 1.24 µM) | > 64 | 0.015 (≈ 0.0372 µM) | 2 (≈ 4.96 µM)
31 | CC[C@H]1OC(=O)[C@H](C)[C@@H](O[C@H]2C[C@@](C)(OC)[C@@H](O)[C@H](C)O2)[C@H](C)[C@@H](O[C@@H]2O[C@H](C)C[C@H](N(C)C)[C@H]2O)[C@](C)(O)C[C@@H](C)C(=O)[C@H](C)[C@@H](O)[C@]1(C)O [ERYTHROMYCIN] | 32 (≈ 43.6 µM) | ≤ 0.125 | 16 (≈ 21.8 µM) | > 64 | ≤ 0.125 |  | ≤ 0.125 | > 64
32 | Cn1c(COc2ccc(F)c(C(N)=O)c2F)nn(-c2ccc(Br)cc2)c1=O | > 64 | > 64 | > 64 | > 64 | 1 (≈ 2.28 µM) | > 64 | 64 (≈ 146 µM) | 
33 | NC(=O)c1c(F)ccc(OCc2nn(-c3ccccc3)c(=O)o2)c1F | > 64 | 16 (≈ 46.1 µM) | > 64 | 16 (≈ 46.1 µM) | 64 (≈ 184 µM) | 32 (≈ 92.1 µM) | 4 (≈ 11.5 µM) | 16 (≈ 46.1 µM)
34 | CCCCCCCCn1c(COc2ccc(F)c(C(N)=O)c2F)nn(-c2ccc(Br)cc2)c1=O | > 64 | > 64 | > 64 | > 64 | > 64 | > 64 | > 64 | 
35 | NC(=O)c1c(F)ccc(OCc2nn(-c3ccc(Br)cc3)c(=O)n2N)c1F | > 64 | > 64 | > 64 | > 64 | 64 (≈ 145 µM) | > 64 | 16 (≈ 36.3 µM) | 
36 | NC(=O)c1c(F)ccc(OCc2nn(-c3ccc(Br)cc3)c(=O)n2Cc2ccccc2)c1F | > 64 | > 64 | > 64 | > 64 | > 64 | > 64 | > 64 | 
